# Test results from patent publication US11213510B2, “Thioindirubins” (City of Hope, priority 2017, dated 2022).
# pIC50: −log10 of the molar value. Like-named read-outs stand apart in the source and are kept apart here.
# How the values were obtained:
# Type in all cases: cell-based
# A2058 melanoma cell line = assay: MTS cell viability assay, A2058; details: for Cell viability (% control) A2058 1 μM / Cell viability (% control) A2058 10 μM / Cell viability at 10 μM (% control) A2058: 48 h; for Cell viability (% control) A2058 1 μM / Cell viability (% control) A2058 10 μM / IC50: MTS; for IC50: A2058, 48 h, read-out: IC50 values (μM) against prostate cancer and melanoma A2058 (melanoma); for Cell viability at 10 μM (% control) A2058: MTS (Table 2)
# Excerpt: (§1) To determine if novel synthetic thioindirubins have antitumor activities, we performed an MTS cell viability assay. Initially, we screened them at […] final concentration with A2058 melanoma and DU145 prostate cancer cell lines. Then, compound 9b and compound 7e were selected to determine IC50 values against prostate cancer, melanoma and lung cancer cells, including DU145, A2058, A549, H513, H2461, H358, DMS114, H2596, DMS273, H69, H526 and DMS114 cell lines. For the viability assay, 5000 cells/well were seeded in 96-well plates, incubated overnight at 37° C. in 5% CO2 and then exposed to […] of compounds or in a dose-dependent manner for 48 h. After 48 h treatment with compounds, MTS dye (20 μL/well) was added to 96-well plates. Viable cell numbers were determined by tetrazolium conversion to its formazan dye. Absorbance was measured at 490 nm using the BMG LABTECH plate reader. Dimethyl sulfoxide (DMSO) was used as the vehicle control. Each experiment was conducted in triplicate. IC50 values were determined using CalcuSyn software (Biosoft).
# [1] = tested on: DU145 prostate cancer cell line; assay: MTS cell viability assay, DU145; details: for Cell viability (% control) DU145 1 μM / Cell viability (% control) DU145 10 μM / Cell viability at 10 μM (% control) DU145: 48 h; for Cell viability (% control) DU145 1 μM / Cell viability (% control) DU145 10 μM / IC50: MTS; for IC50: DU145, 48 h, read-out: IC50 values (μM) against prostate cancer and melanoma DU145 (prostate cancer); for Cell viability at 10 μM (% control) DU145: MTS (Table 2)
# Excerpt: as §1
# [2] = tested on: A549 non-small lung cancer cell line; assay: MTS cell viability assay, A549; details: A549, 48 h, read-out: IC50 values (μM) against non-small lung cancer A549
# Excerpt: as §1
# [3] = tested on: H513 non-small lung cancer cell line; assay: MTS cell viability assay, H513; details: H513, 48 h, read-out: IC50 values (μM) against non-small lung cancer H513
# Excerpt: as §1
# [4] = tested on: H2461 non-small lung cancer cell line; assay: MTS cell viability assay, H2461; details: H2461, 48 h, read-out: IC50 values (μM) against non-small lung cancer H2461
# Excerpt: as §1
# [5] = tested on: H358 non-small lung cancer cell line; assay: MTS cell viability assay, H358; details: read-out: IC50 values (μM) against non-small lung cancer H358
# Excerpt: as §1
# [6] = tested on: H2596 non-small lung cancer cell line; assay: MTS cell viability assay, H2596; details: H2596, 48 h, read-out: IC50 values (μM) against non-small lung cancer H2596
# Excerpt: as §1
# [7] = tested on: DMS273 small lung cancer cell line; assay: MTS cell viability assay, DMS273; details: read-out: IC50 values (μM) against small lung cancer DMS273
# Excerpt: as §1
# [8] = tested on: H69 small lung cancer cell line; assay: MTS cell viability assay, H69; details: H69, 48 h, read-out: IC50 values (μM) against small lung cancer H69
# Excerpt: as §1
# [9] = tested on: H526 small lung cancer cell line; assay: MTS cell viability assay, H526; details: read-out: IC50 values (μM) against small lung cancer H526
# Excerpt: as §1
# [10] = tested on: DMS114 small lung cancer cell line; assay: MTS cell viability assay, DMS114; details: read-out: IC50 values (μM) against small lung cancer DMS114
# Excerpt: as §1
# [11] = tested on: lung cancer, prostate cancer and melanoma cell lines; assay: MTS cell viability assay, cancer cell line panel (summary statement); details: some cell lines, not specified; read-out: IC50 against some cell lines (antitumor activities)
# Method: IC50 values (μM) of compound 9b were determined using lung cancer cell lines including non-small lung cancer cell lines (Table 3: A549, H513, H2461, H358, ad H2596) and small lung cancer cell lines (Table 4: DMS273, H69, H526, and DMS114), prostate cancer (Table 5: DU145), melanoma (Table 5: A2058).
# as §1
SMILES,Cell viability (% control) A2058 1 μM (A2058 melanoma cell line) [% control],"Cell viability (% control) A2058 10 μM (A2058 melanoma cell line; A2058, 10 μM) [% control]",Cell viability (% control) DU145 1 μM [1] [% control],"Cell viability (% control) DU145 10 μM ([1]; DU145, 10 μM) [% control]",also measured
"O=C1Nc2ccccc2/C1=C1/Sc2ccccc2C1=O [Compound 6a, (2′Z)-Thioindirubin]",99,77,>100,90,
"O=C1Sc2ccccc2/C1=C1/Nc2ccc(Br)cc2C1=O [Compound 6b, (2′Z)-5′-Bromothioindirubin]",97,100,>100,>100,
"O=C1Sc2ccccc2/C1=C1/Nc2cc(Cl)ccc2C1=O [Compound 6c, (2′Z)-6′-Chlorothioindirubin]",84,96,80,82,
"N#Cc1ccc2c(c1)C(=O)/C(=C1/C(=O)Sc3ccccc31)N2 [Compound 6d, (2′Z)-5′-Cyanothioindirubin]",95,87,>100,95,
"COC(=O)c1ccc2c(c1)C(=O)/C(=C1/C(=O)Sc3ccccc31)N2 [Compound 6e, (2′Z)-5′-(Methoxycarbonyl)thioindirubin]",92,94,>100,>100,
"COC(=O)c1ccc2c(c1)S/C(=C1\C(=O)Nc3ccccc31)C2=O [Compound 6f, (2′Z)-6′-(Methoxycarbonyl)thioindirubin]",93,>100,99,93,
"Cc1ccc2c(c1)C(=O)/C(=C1/C(=O)Nc3ccccc31)S2 [Compound 6g, (2′Z)-5′-Methylthioindirubin]",>100,97,94,>100,
"O=C1Sc2ccccc2/C1=C1/Nc2cc(Cl)ccc2/C1=N\O [Compound 7c, (2′Z,3′E)-6′-Chlorothioindirubin-3′-oxime]",86,27,>100,33,
"N#Cc1ccc2c(c1)C(=N\O)/C(=C1/C(=O)Nc3ccccc31)S2 [Compound 7d, (2′Z,3′E)-5′-Cyanothioindirubin-3′-oxime]",89,99,>100,93,
"COC(=O)c1ccc2c(c1)C(=N\O)/C(=C1/C(=O)Nc3ccccc31)S2 [Compound 7e, (2′Z,3′E)-5′-(Methoxycarbonyl)thioindirubin-3′-oxime]",90,68,>100,88,"IC50 (A2058 melanoma cell line): > 10 µM; IC50 [1]: > 10 µM; IC50 [2]: > 10 µM; IC50 [3]: > 10 µM; IC50 [4]: > 10 µM; IC50 ([5]; H358, 48 h): 7.7 µM; IC50 [6]: > 10 µM; IC50 ([7]; DMS273, 48 h): > 10 µM; IC50 [8]: > 10 µM; IC50 ([9]; H526, 48 h): > 10 µM; IC50 ([10]; DMS114, 48 h): > 10 µM"
"COC(=O)c1ccc2c(c1)NC(=C1\C(=O)Sc3ccccc31)/C2=N/O [Compound 7f, (2′Z,3′E)-6′-(Methoxycarbonyl)thioindirubin-3′-oxime]",92,>100,>100,>100,
"Cc1ccc2c(c1)C(=N\O)/C(=C1/C(=O)Nc3ccccc31)S2 [Compound 7g, (2′Z,3′E)-5′-Methylthioindirubin-3′-oxime]",84,88,88,79,
"O=C1Nc2ccccc2/C1=C1/Sc2ccccc2/C1=N\OCCN1CCNCC1 [Compound 9a, (2′Z,3′E)-Thioindirubin-3′-[O-(2-(piperazin-1-yl)ethyl)]oxime]",,,,,"Cell viability at 10 μM (% control) A2058 (A2058 melanoma cell line; A2058, 10 μM): 91 % control; Cell viability at 10 μM (% control) DU145 ([1]; DU145, 10 μM): 82 % control"
"COC(=O)c1ccc2c(c1)C(=N\OCCN1CCNCC1)/C(=C1/C(=O)Sc3ccccc31)N2 [Compound 9b, (2′Z,3′E)-5′-(Methoxycarbonyl)thioindirubin-3′-[O-(2-(piperazin-1-yl)ethyl)]oxime]",,,,,"viabilities of these cells at 10 μM concentration (A2058), in words (A2058 melanoma cell line; A2058, 10 μM): extremely reduced viabilities; Cell viability at 10 μM (% control) A2058 (A2058 melanoma cell line; A2058, 10 μM): 8 % control; IC50 (A2058 melanoma cell line; Homo sapiens): 1.07 µM; viabilities of these cells at 10 μM concentration (DU145), in words ([1]; DU145, 10 μM): extremely reduced viabilities; Cell viability at 10 μM (% control) DU145 ([1]; DU145, 10 μM): 17 % control; IC50 ([1]; Homo sapiens, DU-145): 2.53 µM; IC50 ([2]; Homo sapiens): 4.6 µM; IC50 [3]: 1.6 µM; IC50 [4]: 1 µM; IC50 ([5]; Homo sapiens, NCI-H358, H358, 48 h): 2.4 µM; IC50 [6]: 1.02 µM; IC50 ([7]; Homo sapiens, DMS-273, DMS273, 48 h): 6.1 µM; IC50 [8]: 0.78 µM; IC50 ([9]; Homo sapiens, NCI-H526, H526, 48 h): 1.7 µM; IC50 ([10]; Homo sapiens, DMS-114, DMS114, 48 h): 1.13 µM; pIC50 [11]: ~6.00"
"COC(=O)c1ccc2c(c1)C(=N\OCCN1CCOCC1)/C(=C1/C(=O)Nc3ccccc31)S2 [Compound 9c, (2′Z,3′E)-5′-(Methoxycarbonyl)thioindirubin-3′-[O-(2-(morpholino)ethyl)]oxime]",,,,,"Cell viability at 10 μM (% control) A2058 (A2058 melanoma cell line; A2058, 10 μM): 70 % control; Cell viability at 10 μM (% control) DU145 ([1]; DU145, 10 μM): 101 % control"
